In publication PMC4919555 (EBioMedicine, 2016):
In brackets after ≈: the same amount, converted by molar mass. Like-named read-outs stand apart in the source and are kept apart here.

Tests used:
[1] = mice
[2] = molecular target: human FAS (Homo sapiens, UniProt P49327); assay: Selectivity against human FAS; format: biochemical
[3] = molecular target: T1, InhA (Mycobacterium tuberculosis, UniProt P9WGR1); conditions: steady-state competition experiments
[4] = molecular target: T1, InhA; assay: biochemical
[5] = test system: M. bovis BCG; format: cell-based
[6] = format: in vitro ADME; conditions: mouse liver microsomes
[7] = physchem; format: physicochemical; conditions: pH 7.4
[8] = format: in vitro ADME; conditions: human liver microsomes
[9] = in vivo; conditions: female, C57BL/6j, mouse; for Vd / clearance / half-life: iv; for Cmax / Tmax: po
[10] = test system: panel of Gram-positive and Gram-negative organisms; assay: General antimicrobial activity assay; format: cell-based; conditions: read-out: Antibacterial panel (MIC)
[11] = test system: HepG2 mammalian cells; format: cell-based; conditions: human
[12] = test system: M. tuberculosis H37Rv; assay: microbe, parasite or virus in culture; format: cell-based; conditions: Mycobacterium tuberculosis, read-out: Mtb MIC
[13] = format: in vivo, C57BL/6 mice; conditions: mice
[14] = molecular target: CYP 3A4 (Homo sapiens, UniProt P08684); assay: biochemical
[15] = test system: Memb.; Nucleus; Mitoch.; format: cell-based
[16] = test system: GFP expressing MTB; assay: Single-cell time-lapse imaging in microfluidic device; format: cell-based, M. tuberculosis
[17] = test system: M. tuberculosis H37Rv; conditions: acute model
[18] = test system: M. tuberculosis H37Rv; assay: microbe, parasite or virus in culture; format: cell-based; conditions: Mycobacterium tuberculosis, read-out: Mtb intracell MIC
[19] = genetic toxicity
[20] = molecular target: hERG potassium channel (Homo sapiens, UniProt Q12809); assay: cell-based
[21] = test system: M. tuberculosis; conditions: chronic model, 25 mg/kg, 2-month treatment
[22] = 5 μM, propidium iodide end point

T1 sequence (P9WGR1 whole entry, looked up): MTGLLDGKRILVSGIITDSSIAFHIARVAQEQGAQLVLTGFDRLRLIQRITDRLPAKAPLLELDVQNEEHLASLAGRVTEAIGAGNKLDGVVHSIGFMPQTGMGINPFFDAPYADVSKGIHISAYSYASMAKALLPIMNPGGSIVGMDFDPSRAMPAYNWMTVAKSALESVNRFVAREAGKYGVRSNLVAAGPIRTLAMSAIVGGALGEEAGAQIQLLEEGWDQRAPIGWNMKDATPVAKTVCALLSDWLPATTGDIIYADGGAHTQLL
Sequence of CYP 3A4 (P08684 whole entry): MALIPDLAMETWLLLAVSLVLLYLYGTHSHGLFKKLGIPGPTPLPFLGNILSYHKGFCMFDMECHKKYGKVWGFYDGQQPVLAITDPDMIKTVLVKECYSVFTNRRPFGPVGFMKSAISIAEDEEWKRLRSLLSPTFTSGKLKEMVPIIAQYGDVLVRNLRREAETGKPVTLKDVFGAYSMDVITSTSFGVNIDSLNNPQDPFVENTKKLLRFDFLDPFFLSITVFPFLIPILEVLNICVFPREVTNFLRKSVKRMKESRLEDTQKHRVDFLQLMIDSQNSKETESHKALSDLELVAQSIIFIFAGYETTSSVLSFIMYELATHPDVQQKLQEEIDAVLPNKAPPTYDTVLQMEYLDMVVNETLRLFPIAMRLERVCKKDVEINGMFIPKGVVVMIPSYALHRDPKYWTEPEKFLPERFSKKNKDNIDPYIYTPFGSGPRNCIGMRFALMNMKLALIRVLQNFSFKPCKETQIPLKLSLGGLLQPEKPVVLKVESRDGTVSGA
Sequence of hERG potassium channel (Q12809 whole entry): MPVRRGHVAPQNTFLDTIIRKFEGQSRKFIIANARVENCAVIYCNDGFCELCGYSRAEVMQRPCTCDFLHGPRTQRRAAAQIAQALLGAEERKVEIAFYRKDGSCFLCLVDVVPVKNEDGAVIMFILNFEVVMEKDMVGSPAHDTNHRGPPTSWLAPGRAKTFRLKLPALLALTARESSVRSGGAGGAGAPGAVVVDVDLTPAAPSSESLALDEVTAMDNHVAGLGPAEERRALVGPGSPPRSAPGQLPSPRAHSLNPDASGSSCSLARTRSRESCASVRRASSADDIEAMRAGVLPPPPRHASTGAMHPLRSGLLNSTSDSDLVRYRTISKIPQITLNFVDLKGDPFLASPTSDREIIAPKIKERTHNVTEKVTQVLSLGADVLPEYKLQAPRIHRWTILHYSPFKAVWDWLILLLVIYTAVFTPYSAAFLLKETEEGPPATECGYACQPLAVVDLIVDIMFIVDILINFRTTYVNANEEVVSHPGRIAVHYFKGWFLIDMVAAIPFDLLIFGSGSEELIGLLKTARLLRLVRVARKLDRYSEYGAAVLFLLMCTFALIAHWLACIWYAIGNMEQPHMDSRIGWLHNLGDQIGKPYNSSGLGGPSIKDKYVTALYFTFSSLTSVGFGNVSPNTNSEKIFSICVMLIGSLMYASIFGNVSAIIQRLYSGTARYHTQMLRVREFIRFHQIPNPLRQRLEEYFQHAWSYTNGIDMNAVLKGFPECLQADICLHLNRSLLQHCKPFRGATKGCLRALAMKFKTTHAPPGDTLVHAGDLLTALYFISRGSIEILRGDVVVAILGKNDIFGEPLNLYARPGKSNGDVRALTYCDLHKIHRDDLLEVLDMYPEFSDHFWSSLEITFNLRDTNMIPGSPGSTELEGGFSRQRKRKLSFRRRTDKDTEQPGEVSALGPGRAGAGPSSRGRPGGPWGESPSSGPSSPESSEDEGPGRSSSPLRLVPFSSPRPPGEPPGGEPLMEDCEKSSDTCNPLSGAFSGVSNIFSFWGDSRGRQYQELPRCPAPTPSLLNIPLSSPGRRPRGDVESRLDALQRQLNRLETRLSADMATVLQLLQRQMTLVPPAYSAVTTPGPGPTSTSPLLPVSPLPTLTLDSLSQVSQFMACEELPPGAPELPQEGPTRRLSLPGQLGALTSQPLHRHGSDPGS
Sequence of human FAS (P49327 whole entry): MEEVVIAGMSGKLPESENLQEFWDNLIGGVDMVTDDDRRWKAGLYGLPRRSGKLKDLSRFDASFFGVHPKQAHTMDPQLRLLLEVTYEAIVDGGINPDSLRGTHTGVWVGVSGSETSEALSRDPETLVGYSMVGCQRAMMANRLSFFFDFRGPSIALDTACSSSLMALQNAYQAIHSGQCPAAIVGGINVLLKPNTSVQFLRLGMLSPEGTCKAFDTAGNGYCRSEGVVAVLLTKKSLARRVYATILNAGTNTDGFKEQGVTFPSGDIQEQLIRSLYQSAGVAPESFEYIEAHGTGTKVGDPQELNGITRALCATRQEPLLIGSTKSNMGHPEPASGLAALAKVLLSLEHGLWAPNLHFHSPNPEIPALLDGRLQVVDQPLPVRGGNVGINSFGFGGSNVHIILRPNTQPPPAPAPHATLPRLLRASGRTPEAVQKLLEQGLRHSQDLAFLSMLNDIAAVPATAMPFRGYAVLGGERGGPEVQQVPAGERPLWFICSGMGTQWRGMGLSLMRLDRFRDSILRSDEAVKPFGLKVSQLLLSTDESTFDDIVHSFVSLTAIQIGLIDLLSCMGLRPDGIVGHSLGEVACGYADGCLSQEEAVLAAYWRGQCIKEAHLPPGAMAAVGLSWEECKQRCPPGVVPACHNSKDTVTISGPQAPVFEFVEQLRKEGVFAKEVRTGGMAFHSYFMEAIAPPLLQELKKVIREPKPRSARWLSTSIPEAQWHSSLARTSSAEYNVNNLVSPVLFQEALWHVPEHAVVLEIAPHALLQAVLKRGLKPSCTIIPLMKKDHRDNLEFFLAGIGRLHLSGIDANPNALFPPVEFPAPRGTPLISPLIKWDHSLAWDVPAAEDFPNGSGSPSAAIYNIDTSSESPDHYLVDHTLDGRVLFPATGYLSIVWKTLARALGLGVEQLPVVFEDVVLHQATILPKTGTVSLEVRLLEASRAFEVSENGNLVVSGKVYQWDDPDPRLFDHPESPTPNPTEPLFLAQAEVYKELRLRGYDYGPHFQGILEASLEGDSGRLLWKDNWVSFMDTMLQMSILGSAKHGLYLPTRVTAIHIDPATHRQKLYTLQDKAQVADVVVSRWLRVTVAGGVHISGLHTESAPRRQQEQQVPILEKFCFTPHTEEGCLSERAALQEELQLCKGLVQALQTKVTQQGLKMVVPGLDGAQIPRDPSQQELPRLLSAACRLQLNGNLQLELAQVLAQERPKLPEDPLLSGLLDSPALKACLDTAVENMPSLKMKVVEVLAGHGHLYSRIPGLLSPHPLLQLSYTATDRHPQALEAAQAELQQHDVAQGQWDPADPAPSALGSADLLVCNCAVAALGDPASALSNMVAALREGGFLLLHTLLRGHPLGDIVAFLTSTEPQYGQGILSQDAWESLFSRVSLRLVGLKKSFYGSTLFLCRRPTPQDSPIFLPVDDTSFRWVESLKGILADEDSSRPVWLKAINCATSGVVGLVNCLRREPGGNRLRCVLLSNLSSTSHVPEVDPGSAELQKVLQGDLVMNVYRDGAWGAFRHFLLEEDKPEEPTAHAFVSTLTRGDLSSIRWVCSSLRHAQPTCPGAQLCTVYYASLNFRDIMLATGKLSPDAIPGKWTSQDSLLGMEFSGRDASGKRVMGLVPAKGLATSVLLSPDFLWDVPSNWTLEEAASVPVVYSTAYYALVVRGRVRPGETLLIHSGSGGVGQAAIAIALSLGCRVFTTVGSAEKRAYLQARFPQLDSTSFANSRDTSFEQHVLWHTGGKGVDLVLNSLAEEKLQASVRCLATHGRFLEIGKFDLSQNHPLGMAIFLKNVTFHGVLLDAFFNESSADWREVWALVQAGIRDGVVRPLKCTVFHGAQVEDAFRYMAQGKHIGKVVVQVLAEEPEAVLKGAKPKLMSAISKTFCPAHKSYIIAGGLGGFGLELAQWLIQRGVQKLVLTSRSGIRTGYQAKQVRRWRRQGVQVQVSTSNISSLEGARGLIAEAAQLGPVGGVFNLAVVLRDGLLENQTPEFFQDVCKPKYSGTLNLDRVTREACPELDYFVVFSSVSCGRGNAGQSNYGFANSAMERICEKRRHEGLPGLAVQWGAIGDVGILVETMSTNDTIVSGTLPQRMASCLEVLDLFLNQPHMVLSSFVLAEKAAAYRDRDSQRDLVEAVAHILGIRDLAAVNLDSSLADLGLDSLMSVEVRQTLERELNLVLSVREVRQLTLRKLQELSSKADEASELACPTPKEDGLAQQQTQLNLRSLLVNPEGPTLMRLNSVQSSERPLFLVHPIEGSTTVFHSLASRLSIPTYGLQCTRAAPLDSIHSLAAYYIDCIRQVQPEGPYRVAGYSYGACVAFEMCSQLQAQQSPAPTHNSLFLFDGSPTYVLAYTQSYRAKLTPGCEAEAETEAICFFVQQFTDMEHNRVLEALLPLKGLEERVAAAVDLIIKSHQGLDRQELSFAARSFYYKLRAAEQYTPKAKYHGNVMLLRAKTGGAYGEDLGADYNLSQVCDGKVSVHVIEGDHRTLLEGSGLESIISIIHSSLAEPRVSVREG

Cc1ccn(C(C)c2nnc(Nc3ccn(Cc4c(F)cccc4Cl)n3)s2)n1 (stereo not shown) [GSK613, N-(1-(2-chloro-6-fluorobenzyl)-1H-pyrazol-3-yl)-5-(1-(3-methyl-1H-pyrazol-1-yl)ethyl)-1,3,4-thiadiazol-2-amine]
DNAUC (dose normalized exposure) ([1]; Table 1 hits): 5 ng·h/ml per mg/kg | Activity against human FAS [2]: inactive | Mode of inhibition versus NADH [3]: uncompetitive with NADH | Mode of inhibition versus fatty acid substrate [3]: competes with the fatty acid substrate | IC50 [4]: 0.007 µM | Shift in MIC in strains overexpressing the target [5]: ≥ 4 fold | In vitro Cli mouse [6]: 11.9 mL/min/g | solubility [7]: 10 µM (≈ 4.18 µg/mL) | In vitro Cli human [8]: 2.9 mL/min/g | Vd ([9]; 0.5 mg/kg): 2.5 L/kg | clearance ([9]; 0.5 mg/kg): 157 mL/min/kg | half-life ([9]; 0.5 mg/kg): 18 min | Cmax ([9]; 50 mg/kg): 94.3 ng/mL | Tmax ([9]; 50 mg/kg): 45 min | MIC [10]: ≥ 64 µg/mL | HepG2 cytotoxicity Tox 50 [11]: > 100 µM | MIC [12]: ≤ 1 µM

Cc1csc([C@](C)(O)c2nnc(Nc3ccn(Cc4csc(C)n4)n3)s2)n1 [GSK693, (S)-1-(4-methylthiazol-2-yl)-1-(5-((1-((2-methylthiazol-4-yl)methyl)-1H-pyrazol-3-yl)amino)-1,3,4-thiadiazol-2-yl)ethanol]
DNAUC ([1]; Table 3 lead): 935.8 ng·h/ml per mg/kg | Maximal no lethal dose (MNLD) [13]: higher than 1000 mg/kg | IC50 [4]: 0.007 µM | IC50 ([14]; CYP 3A4 IC50 VG, VG substrate): 25.1 µM | IC50 ([14]; CYP 3A4 IC50 VR, VR substrate): > 50.1 µM | Cell Health (Memb.; Nucleus; Mitoch. ) [15]: > 199.5 µM | Total fraction of cells undergoing lysis ([16]; 5 μM GSK693 for 10 days, N = 32 microcolonies): 53 ± 20% | Regrowth after washout of the drug ([16]; 5 μM for 10 days, washout 7 days): None of the intact bacteria exhibited regrowth | Intact cells PI-positive after exposure [16, 22]: About 22% | Intact cells still able to exclude PI [16, 22]: 78% | Bacterial load reduction ([17]; 100 mg/kg oral): 4 log10 colony forming units (CFU) per lung | Clearance of bacilli (Log CFU) ([17]; oral 30, 100 and 300 mg/kg, P < 0.001): significant clearance of bacilli compared with the controls | In vitro Cli mouse [6]: 2.1 mL/min/g | solubility [7]: 413 µM (≈ 173 µg/mL) | In vitro Cli human [8]: 0.2 mL/min/g | MIC [18]: 0.2 µM (≈ 0.0839 µg/mL) | Ames test [19]: Negative | Vd ([9]; 4 mg/kg): 2.58 L/kg | clearance ([9]; 4 mg/kg): 83 mL/min/kg | half-life ([9]; 4 mg/kg): 56.4 min | Cmax ([9]; 100 mg/kg): 37300 ng/mL | Tmax ([9]; 100 mg/kg): 25.2 min | HepG2 cytotoxicity Tox 50 [11]: > 50 µM | IC50 [20]: > 50 µM | MIC [12]: 0.2 µM (≈ 0.0839 µg/mL)

NNC(=O)c1ccncc1 [INH, isoniazid]
Total fraction of cells undergoing lysis ([16]; INH 0.5 µg/ml, N = 41 microcolonies): 42 ± 15% | Clearance of bacilli (Log CFU) ([21]; P < 0.001): significant clearance of bacilli compared with the controls | Clearance of bacilli (Log CFU) ([21]; P < 0.001, listed as isoniazid): clear efficacy

COc1c(N2C[C@@H]3CCCN[C@@H]3C2)c(F)cc2c(=O)c(C(=O)O)cn(C3CC3)c12 [moxifloxacin, reference compound]
Bacterial load reduction ([17]; 30 mg/kg): 4 log10 colony forming units (CFU) per lung
